Data reported in patent publication US8039486B2, “Indole, azaindole and related heterocyclic N-substituted piperazine derivatives” (priority 2003, dated 2011).

What follows are molecules tested on HIV-1 single-round infectious reporter virus (assay: Single-round infectious HIV-1 luciferase reporter virus infection of HeLa CD4 cells). Conditions: Human immunodeficiency virus 1, HeLa, 72 h, read-out: EC50 Group from Table 1.
Assay type: cell-based
Description: • Virus production—Human embryonic Kidney cell line, 293, was propagated in Dulbecco's Modified Eagle Medium (Invitrogen, Carlsbad, Calif.) containing 10% fetal Bovine serum (FBS, Sigma, St. Louis, Mo.). • Virus infection—Human epithelial cell line, HeLa, expressing the HIV-1 receptor CD4 was propagated in Dulbecco's Modified Eagle Medium (Invitrogen, Carlsbad, Calif.) containing 10% fetal Bovine serum (FBS, Sigma, St. Louis, Mo.) and supplemented with 0.2 mg/mL Geneticin (Invitrogen, Carlsbad, Calif.). Virus-Single-round infectious reporter virus was produced by co-transfecting human embryonic Kidney 293 cells with an HIV-1 envelope DNA expression vector and a proviral cDNA containing an envelope deletion mutation and the luciferase reporter gene inserted in place of HIV-1 nef sequences (Chen et al, Ref 41). Transfections were performed using lipofectAMINE PLUS reagent as described by the manufacturer (Invitrogen, Carlsbad, Calif.). Experiment • 1. HeLa CD4 cells were plated in 96 well plates at a cell density of 1×10^4 cells per well in 100 μl Dulbecco's Modified Eagle Medium containing 10% fetal Bovine serum and incubated overnight. • 2. Compound was added in a 2 μl dimethylsulfoxide solution, so that the final assay concentration would be ≦10 μM. • 3. 100 μl of single-round infectious reporter virus in Dulbecco's Modified Eagle Medium was then added to the plated cells and compound at an approximate multiplicity of infection (MOI) of 0.01, resulting in a final volume of 200 μl per well. • 4. Virally-infected cells were incubated at 37 degrees Celsius, in a CO2 incubator, and harvested 72 h after infection. • 5. Viral infection was monitored by measuring luciferase expression from viral DNA in the infected cells using a luciferase reporter gene assay kit, as described by the manufacturer (Roche Molecular Biochemicals, Indianapolis, Ind.). Infected cell supernatants were removed and 50 μl of lysis buffer was added per well. After 15 minutes, 50 μl of freshly-reconstituted luciferase assay reagent was added per well. Luciferase activity was then quantified by measuring luminescence using a Wallac microbeta scintillation counter. • 6. The percent inhibition for each compound was calculated by quantifying the level of luciferase expression in cells infected in the presence of each compound as a percentage of that observed for cells infected in the absence of compound and subtracting such a determined value from 100. • 7. An EC50 provides a method for comparing the antiviral potency of the compounds of this invention. The effective concentration for fifty percent inhibition (EC50) was calculated with the Microsoft Excel Xlfit curve fitting software. For each compound, curves were generated from percent inhibition calculated at 10 different concentrations by using a four paramenter logistic model (model 205). Table 1 is the key for the data in Table 2. Results

Compound | EC50
N=C(NNC(=O)c1ccccc1)c1ncc(F)c2c(C(=O)C(=O)N3CCN(c4nccc5ccccc45)CC3)c[nH]c12 [Example 89] | < 1 µM
COc1cnc(-n2cnc(C)n2)c2[nH]cc(C(=O)C(=O)N3CCN(c4ccc5ccccc5n4)CC3)c12 [Example 90] | < 1 µM
O=C(C(=O)N1CCN(c2ccc3ccccc3n2)CC1)c1c[nH]c2c(-n3ccnn3)ncc(F)c12 [Example 91] | < 1 µM
O=C(C(=O)N1CCN(c2nncc3ccccc23)CC1)c1c[nH]c2c(Br)ncc(F)c12 [Example 92] | < 1 µM
O=C(C(=O)N1CCN(c2nncc3ccccc23)CC1)c1c[nH]c2c(-c3cn[nH]c3)ncc(F)c12 [Example 93] | < 1 µM
O=C(C(=O)N1CCN(c2ncnc3ccccc23)CC1)c1c[nH]c2c(-c3cc[nH]n3)ncc(F)c12 [Example 94] | < 1 µM
O=C(C(=O)N1CCN(c2ncnc3ccccc23)CC1)c1c[nH]c2c(-c3cn[nH]c3)ncc(F)c12 [Example 95] | < 1 µM
COc1cnc(-c2cc[nH]n2)c2[nH]cc(C(=O)C(=O)N3CCN(c4ncnc5ccccc45)CC3)c12 [Example 96] | < 1 µM
